Measurements taken from patent US20220235065A1 (Epizyme, Inc., priority 2016, published 2022).
Structures can show the parent of a compound that is named as a salt.

Columns and labels:
[1] = biological target: T1, recombinant purified human EHMT2 913-1193 (Homo sapiens, UniProt Q96KQ7); assay: EHMT2 enzyme assay on histone peptide substrate (3H-SAM Flashplate); type: biochemical; details: read-out: EHMT2 PEP (IC50 μM)
T1 construct: Recombinant purified human EHMT2 913-1193 (55 μM) synthesized by Viva was used for all experiments; purchased Viva
T1 sequence (Q96KQ7 913-1193): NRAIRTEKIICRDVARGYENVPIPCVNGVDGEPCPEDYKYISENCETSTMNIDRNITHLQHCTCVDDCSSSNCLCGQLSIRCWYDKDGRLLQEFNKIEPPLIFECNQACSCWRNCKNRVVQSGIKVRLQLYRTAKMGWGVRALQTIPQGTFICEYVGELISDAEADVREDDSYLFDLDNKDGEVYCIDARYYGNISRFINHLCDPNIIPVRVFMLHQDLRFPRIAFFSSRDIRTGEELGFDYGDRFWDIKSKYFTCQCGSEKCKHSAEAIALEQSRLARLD
Procedure: Recombinant purified human EHMT2 913-1193 (55 μM) synthesized by Viva was used for all experiments. Biotinylated histone peptides were synthesized by Biopeptide and HPLC-purified to >95% purity. Streptavidin Flashplates and seals were purchased from PerkinElmer and 384 Well V-bottom Polypropylene Plates were from Greiner. ^3H-labeled S-adenosylmethionine (3H-SAM) was obtained from American Radiolabeled Chemicals with a specific activity of 80 Ci/mmol. Unlabeled SAM and S-adenosylhomocysteine (SAH) were obtained from American Radiolabeled Chemicals and Sigma-Aldrich respectively. Flashplates were washed in a Biotek ELx-405 with 0.1% Tween. 384-well Flashplates and 96-well filter binding plates were read on a TopCount microplate reader (PerkinElmer). Compound serial dilutions were performed on a Freedom EVO (Tecan) and spotted into assay plates using a Thermo Scientific Matrix PlateMate (Thermo Scientific). Reagent cocktails were added by Multidrop Combi (Thermo Scientific).
General Procedure for EHMT2 Enzyme Assay on Histone Peptide Substrate.
10-point curves of test compounds were made on a Freedom EVO (Tecan) using serial 3-fold dilutions in DMSO, beginning at 2.5 mM (final top concentration of compound was 50 μM and the DMSO was 2%). A 1 μL aliquot of the inhibitor dilution series was spotted in a polypropylene 384-well V-bottom plate (Greiner) using a Thermo Scientific Matrix PlateMate (Thermo Scientific). The 100% inhibition control consisted of 1 mM final concentration of the product inhibitor S-adenosylhomocysteine (SAH, Sigma-Aldrich). Compounds were incubated for 30 minutes with 40 μL per well of 0.031 nM EHMT2 (recombinant purified human EHMT2 913-1193, Viva) in 1× assay buffer (20 mM Bicine [pH 7.5], 0.002% Tween 20, 0.005% Bovine Skin Gelatin and 1 mM TCEP). 10 μL per well of substrate mix comprising assay buffer, ^3H-SAM (3H-labeled S-adenosylmethionine, American Radiolabeled Chemicals, specific activity of 80 Ci/mmol), unlabeled SAM (American Radiolabeled Chemicals), and peptide representing histone H3 residues 1-15 containing C-terminal biotin (appended to a C-terminal amide-capped lysine, synthesized by Biopeptide and HPLC-purified to greater than 95% purity) were added to initiate the reaction (both substrates were present in the final reaction mixture at their respective Km values, an assay format referred to as “balanced conditions”). Reactions were incubated for 60 minutes at room temperature and quenched with 10 μL per well of 400 μM unlabeled SAM, then transferred to a 384-well streptavidin Flashplate (PerkinElmer) and washed in a Biotek ELx-405 well washer with 0.1% Tween after 60 minutes. 384-well Flashplates were read on a TopCount microplate reader (PerkinElmer).
IC50 curves were generated using triplicate wells per concentration of compound. The IC50 is the concentration of compound at which measured methylation is inhibited by 50% as interpolated from the dose response curves. IC50 values were calculated using a non-linear regression (variable slope-four parameter fit model) with by the following formula
where Top is fixed at 100% and Bottom is fixed to 0%, [I]=concentration of inhibitor, IC50=half maximal inhibitory concentration and n=Hill Slope.

[2] = biological target: T2, EHMT1 (Homo sapiens, UniProt Q9H9B1); assay: EHMT1 PEP (EHMT1 peptide enzyme assay); type: biochemical; details: peptide substrate enzyme assay
T2 sequence (Q9H9B1 1-1298): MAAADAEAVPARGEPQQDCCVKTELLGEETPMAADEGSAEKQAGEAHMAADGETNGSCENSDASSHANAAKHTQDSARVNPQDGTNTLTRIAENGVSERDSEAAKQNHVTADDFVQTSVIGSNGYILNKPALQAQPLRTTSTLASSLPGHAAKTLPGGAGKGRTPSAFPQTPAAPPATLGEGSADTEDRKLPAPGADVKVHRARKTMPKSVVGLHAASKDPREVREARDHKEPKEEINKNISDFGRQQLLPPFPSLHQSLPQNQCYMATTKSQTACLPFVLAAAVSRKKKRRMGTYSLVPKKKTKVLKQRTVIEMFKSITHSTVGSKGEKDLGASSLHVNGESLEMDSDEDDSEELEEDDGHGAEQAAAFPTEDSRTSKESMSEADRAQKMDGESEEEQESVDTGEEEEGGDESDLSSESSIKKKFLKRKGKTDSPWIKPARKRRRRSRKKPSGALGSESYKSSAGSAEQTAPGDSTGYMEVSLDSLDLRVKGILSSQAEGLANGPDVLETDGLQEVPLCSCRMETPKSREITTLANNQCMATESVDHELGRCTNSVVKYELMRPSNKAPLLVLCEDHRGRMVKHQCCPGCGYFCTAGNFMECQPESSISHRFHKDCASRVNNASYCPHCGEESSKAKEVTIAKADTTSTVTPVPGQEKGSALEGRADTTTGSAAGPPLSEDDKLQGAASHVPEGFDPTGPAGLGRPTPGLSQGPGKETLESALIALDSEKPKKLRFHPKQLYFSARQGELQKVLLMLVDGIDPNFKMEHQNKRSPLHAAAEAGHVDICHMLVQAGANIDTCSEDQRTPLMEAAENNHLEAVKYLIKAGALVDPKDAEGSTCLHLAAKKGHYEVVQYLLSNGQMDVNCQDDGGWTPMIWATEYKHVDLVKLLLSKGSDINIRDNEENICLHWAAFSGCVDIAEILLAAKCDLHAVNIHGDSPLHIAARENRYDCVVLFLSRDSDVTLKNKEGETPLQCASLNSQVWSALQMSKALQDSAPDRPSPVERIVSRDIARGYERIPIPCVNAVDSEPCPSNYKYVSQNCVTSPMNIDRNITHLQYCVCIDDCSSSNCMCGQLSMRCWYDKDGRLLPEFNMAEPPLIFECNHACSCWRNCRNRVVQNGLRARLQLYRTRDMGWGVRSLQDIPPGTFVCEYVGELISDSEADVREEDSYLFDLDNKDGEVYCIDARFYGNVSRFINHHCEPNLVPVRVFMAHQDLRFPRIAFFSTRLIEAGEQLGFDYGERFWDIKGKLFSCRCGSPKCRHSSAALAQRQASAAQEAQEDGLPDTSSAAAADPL

Row | IC50 [1] [µM] | IC50 [2] [µM] | SMILES
1 | > 10 | > 10 | CNc1cc(C)nc(Nc2ccc(OC)c(-c3cn4c(n3)CN(C)CC4)c2)n1 [Compound 6]
2 | 1 to 10 | 0.1 to 1 | CNc1cc(C)nc(Nc2ccc(OC)c(-c3cn4c(n3)CNCC4)c2)n1 [Compound 7]
3 | > 10 | 1 to 10 | CNc1cc(C)nc(Nc2ccc(OC)c(-c3nc4n(n3)CCNC4)c2)n1 [Compound 8, 2-N-(4-methoxy-3-[4H,5H,6H,7H-[1,2,4]triazolo[1,5-a]pyrazin-2-yl]phenyl)-4-N,6-dimethylpyrimidine-2,4-diamine hydrochloride]
4 | > 10 | > 10 | CNc1cc(C)nc(Nc2ccc(OC)c(-c3nc4n(n3)CCN(C)C4)c2)n1 [Compound 9]
5 | > 10 | > 10 | CNc1cc(C)nc(Nc2ccc(OC)c(-c3nnc(C)[nH]3)c2)n1 [Compound 11]
6 | > 10 | > 10 | CNc1cc(C)nc(Nc2ccc(OC)c(-c3cn[nH]c3)c2)n1 [Compound 12, 2-N-[4-methoxy-3-(1H-pyrazol-4-yl)phenyl]-4-N,6-dimethylpyrimidine-2,4-diamine]
7 | > 10 | 0.1 to 1 | CNc1cc(C)nc(Nc2ccc(OC)c(-n3cc4ccccc4n3)c2)n1 [Compound 146]
8 | 1 to 10 | 0.1 to 1 | CNc1cc(C)nc(Nc2ccc(OC)c(-n3cc4cc(Br)ccc4n3)c2)n1 [Compound 148]
9 | 0.1 to 1 | 0.1 to 1 | CNc1cc(C)nc(Nc2ccc(OC)c(-n3cc4cncc(C)c4n3)c2)n1 [Compound 151]
10 | > 10 | > 10 | CNc1cc(C)nc(Nc2ccc(OC)c(-c3ccc4nc(C)[nH]c4c3)c2)n1 [Compound 155]
11 | > 10 | > 10 | CNc1cc(C)nc(Nc2ccc(OC)c(-c3ccc4cc(C)[nH]c4c3)c2)n1 [Compound 156]
12 | < 0.1 | < 0.1 | CNc1cc(C)nc(Nc2ccc(OC)c(-c3cc4ccncc4[nH]3)c2)n1 [Compound 157, N2-(4-methoxy-3-(1H-pyrrolo[2,3-c]pyridin-2-yl)phenyl)-N4,6-dimethylpyrimidine-2,4-diamine]
13 | 0.1 to 1 | < 0.1 | CNc1cc(C)nc(Nc2ccc(OC)c(-c3cc4cnccc4n3C)c2)n1 [Compound 158]
14 | < 0.1 | < 0.1 | CNc1ccnc(Nc2ccc(OC)c(-c3cc4[nH]ccc4cn3)c2)n1 [Compound 175, N2-(4-methoxy-3-(1H-pyrrolo[3,2-c]pyridin-6-yl)phenyl)-N4-methylpyrimidine-2,4-diamine]
15 | > 10 | > 10 | CNc1ccnc(Nc2ccc(OC)c(-c3ccc4cc[nH]c4c3)c2)n1 [Compound 178]

Further lines, the molecule ahead of its results:

Row | SMILES | IC50 [1] [µM] | IC50 [2] [µM]
16 | CNc1cc(C)nc(Nc2ccc(OC)c(-n3ncc4c3CCN(C)C4)c2)n1 [Compound 10] | 0.1 to 1 | 0.1 to 1
17 | CNCc1cn(-c2cc(Nc3nc(C)cc(NC)n3)ccc2OC)nn1 [Compound 159, N2-(4-methoxy-3-(4-((methylamino)methyl)-1H-1,2,3-triazol-1-yl)phenyl)-N4,6-dimethylpyrimidine-2,4-diamine] | < 0.1 | < 0.1
18 | CNc1cc(C)nc(Nc2ccc(OC)c(-n3cc(CN(C)C)c(C)n3)c2)n1 [Compound 160] | < 0.1 | < 0.1
19 | CNc1nc2cc(-n3cc(CN(C)C)nn3)c(OC)cc2n1C [Compound 163] | 1 to 10 | 1 to 10
20 | CNc1cc(C)nc(Nc2ccc(OC)c(-n3cc(C(C)NC)nn3)c2)n1 (centres unmarked) [Compound 164] | 0.1 to 1 | 0.1 to 1
21 | CNc1cc(C)nc(Nc2ccc(OC)c(-n3cc(C(NC)C(F)(F)F)nn3)c2)n1 (centres unmarked) [Compound 165] | > 10 | > 10
22 | CNc1cc(C)nc(Nc2ccc(OC)c(-n3cc(C(C)(C)NC)nn3)c2)n1 [Compound 166] | > 10 | 1 to 10
23 | CNc1ccnc(Nc2ccc(OC)c(-n3cnc(CN(C)C)c3)c2)n1 [Compound 170] | 0.1 to 1 | < 0.1
24 | CNc1ccnc(Nc2ccc(OC)c(-n3cc(CN(C)C)nn3)c2)n1 [Compound 171] | < 0.1 | < 0.1
25 | CCNCc1cn(-c2cc(Nc3nccc(NC)n3)ccc2OC)nn1 [Compound 172] | 0.1 to 1 | 0.1 to 1
26 | CNc1ccnc(Nc2ccc(OC)c(-n3cc(CNCC4CC4)nn3)c2)n1 [Compound 173] | 1 to 10 | < 0.1
27 | CNc1ccnc(Nc2ccc(OC)c(-c3cc4[nH]ncc4cn3)c2)n1 [Compound 174] | > 10 | > 10
28 | CNc1ccnc(Nc2ccc(OC)c(-n3cc(C4CC4)nn3)c2)n1 [Compound 176] | 1 to 10 | 0.1 to 1
29 | CNc1ccnc(Nc2ccc(OC)c(-n3cc(C4COC4)nn3)c2)n1 [Compound 177] | > 10 | 1 to 10
30 | CNCc1cnn(-c2cc3nc(NC)n(C)c3cc2OC)c1 [Compound 179] | 0.1 to 1 | 0.1 to 1
31 | CNCc1cnn(-c2cc(Nc3nccc(NC)n3)ccc2OC)c1 [Compound 181, N2-(4-methoxy-3-(4-((methylamino)methyl)-1H-pyrazol-1-yl)phenyl)-N4-methylpyrimidine-2,4-diamine] | < 0.1 | < 0.1
32 | CNCc1cnn(-c2cc3nc(NC)cc(C4CCOCC4)c3cc2OC)c1 [Compound 184] | 0.1 to 1 | 0.1 to 1
33 | CCNCc1cnn(-c2cc(Nc3nccc(NC)n3)ccc2OC)c1 [Compound 185] | 0.1 to 1 | 0.1 to 1
34 | CNCc1cnn(-c2cc3c(cc2OC)C2(CCC2)C(N)=N3)c1 [Compound 186] | < 0.1 | < 0.1
